This assay has as its target T1, Polθ polymerase domain (amino acids 1792-2590) (Homo sapiens, UniProt O75417).
T1 construct: 10×Histidine-SUMO (N, cleaved yes); made in house; host or cells: E. coli
T1 sequence (O75417 1792-2590): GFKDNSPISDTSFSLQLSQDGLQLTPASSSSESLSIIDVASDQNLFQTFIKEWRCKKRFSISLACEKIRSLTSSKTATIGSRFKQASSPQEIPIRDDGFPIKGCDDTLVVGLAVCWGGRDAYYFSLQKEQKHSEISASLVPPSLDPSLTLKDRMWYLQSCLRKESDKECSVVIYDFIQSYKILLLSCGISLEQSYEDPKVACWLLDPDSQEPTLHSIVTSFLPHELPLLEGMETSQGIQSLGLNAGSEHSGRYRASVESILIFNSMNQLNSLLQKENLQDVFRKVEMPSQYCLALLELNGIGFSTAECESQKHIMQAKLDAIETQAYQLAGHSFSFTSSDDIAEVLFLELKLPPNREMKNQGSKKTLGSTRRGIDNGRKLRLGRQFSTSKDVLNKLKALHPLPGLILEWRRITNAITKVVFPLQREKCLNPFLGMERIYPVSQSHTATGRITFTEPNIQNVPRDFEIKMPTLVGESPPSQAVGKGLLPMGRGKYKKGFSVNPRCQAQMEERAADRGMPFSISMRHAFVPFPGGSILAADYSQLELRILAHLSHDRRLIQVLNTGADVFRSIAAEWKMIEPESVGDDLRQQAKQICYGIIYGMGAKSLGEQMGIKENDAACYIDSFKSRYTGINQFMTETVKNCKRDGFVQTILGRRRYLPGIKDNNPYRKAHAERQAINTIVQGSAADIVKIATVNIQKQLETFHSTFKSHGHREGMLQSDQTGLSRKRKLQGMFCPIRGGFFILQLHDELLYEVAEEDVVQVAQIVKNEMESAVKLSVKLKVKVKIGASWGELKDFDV
Put plainly: Picogreen assay of Polθ polymerase activity. The assay is classed as biochemical. To be noted: 12-point concentration response, 90 minutes incubation at room temperature, 8 nM Polθ in 2×polymerase mixture, read-out: PolQ IC50. The text has this: The DNA sequence of the polQ gene (Genebank ID #NM 199420.4) was chemically synthesized. The DNA sequence encoding the polymerase domain (amino acids 1792-2590) was subcloned into an E. coli expression plasmid, resulting in the fusion of 10×Histidine-SUMO tag at the N terminus of the polymerase domain.
The protein was expressed in E. coli. and purified using a 2-step IMAC (immobilized metal chelate affinity chromatography) procedure. Briefly stated, the overexpressed E. coli lysate was subjected to Ni-NTA purification, and an N-terminal tag was digested by a SUMO protease. Then, the excised fragment of 10×Histidine-SUMO tag was removed using Ni-NTA beads. The resulting protein was used for the Picogreen assay, as described below.
The methods of DNA complex preparation were slightly modified from the protocol previously reported (Zatreanu et al., 2021, Nature Communications, 12:3636). Briefly stated, polθ substrate was prepared by mixing Oligo1 (5′-GCG GCT GTC ATA AG-3′) and Oligo2 (5′-GCTACATTGACAATGGCATCAAATCTCAGATTGCGTCTTATGACAGCCGCG-3′) in an annealing buffer (20 mM Tris-Cl, pH 7.5, 50 mM NaCl) to the final concentration of 22 uM and 20 uM, respectively. The Polθ product was prepared by mixing Oligo3 (5′-CGCGGCTGTCATAAGACGCAATCTGAGATTTGATGCCATTGTCAATGTAGC-3′) and Oligo2 (5′-GCTACATTGACAATGGCATCAAATCTCAGATTGCGTCTTATGACAGCCGCG-3′) to the final concentration of 20 uM. The polθ product was used for the top signal control in the Picogreen assay. Both substrate and product were heated to 95° C. […] and cooled slowly to room temperature.
To evaluate the ability of test compounds to inhibit the activity of polθ in vitro, a Picogreen assay was performed to measure polθ IC50 (nM).
The reactions were performed at room temperature in an assay buffer (25 mM Tris-HCl, pH 7.5, 12.5 mM NaCl, 0.5 mM MgCl2, 5% (v/v) glycerol, 0.01% (v/v) Triton X-100, 0.01% (w/v) Bovine serum albumin, 1 mM DTT). Thirty microliters of 2×polymerase mixture (8 nM Polθ enzyme in an assay buffer) were distributed to 96 well plates, test compounds were prepared by dilution in 100% DMSO to obtain the correct dose range for a 12-point concentration response and 1 μl was dispensed into each well, and then 30 microliters of 2×substrate mix (100 nM DNA and 40 uM dNTPs in an assay buffer) was added. After 90 minutes of incubation, the reaction was stopped and DNA was stained by adding 40 microliters of Picogreen solution (1:80 dilution of Picogreen, Invitrogen, Cat #P7581, 25 mM Tris-HCl, pH 7.5, 10 mM EDTA, pH 7.5).
The fluorescence intensity was measured at excitation/emission=485 nm/520 nm using an Ensight plate reader (Perkin Elmer). The data was analyzed by GraphPad Prism software (Version 8.4.3) to calculate IC50.
One may read the IC50 as the concentration that inhibits the measured activity by half. Turning to `Cc1cc(C(F)(F)F)cc(N2[C@H](C(=O)N(CC#Cc3cnc(N4C[C@H](C)N(C(C)C)[C@@H](C)C4)cn3)c3ccc(F)c(C)c3)CCS2(=O)=O)n1` (stereo in doubt) [compound 54], the IC50 is more than 101 nM.

`Cc1cccc(N(CC#Cc2ccc(N)nn2)C(=O)[C@@H]2CCC(=O)N2c2cc(C(F)(F)F)cc(C)n2)c1` [compound 1]: the IC50 fell in the range of 1 to 50 nM.

With `Cc1cc(C(F)(F)F)cc(N2C(=O)CC[C@H]2C(=O)N(CC#Cc2ccc(N)nn2)c2ccc(F)c(C)c2F)n1` [compound 2], the IC50 fell in the range of 1 to 50 nM.

Turning to `Cc1cc(C(F)(F)F)cc(N2C(=O)CC[C@H]2C(=O)N(CC#Cc2ccc(N)nn2)c2ccc(F)c(Cl)c2)n1` [compound 3], the IC50 is 1 to 50 nM.

Take `Cc1cc(C(F)(F)F)cc(N2C(=O)CC[C@H]2C(=O)N(CC#Cc2ccc(N)nn2)c2ccc(F)c(Cl)c2F)n1` [compound 4]: the IC50 fell in the range of 1 to 50 nM.

In the case of `Cc1cc(C(F)(F)F)cc(N2C(=O)CC[C@H]2C(=O)N(CC#Cc2ccc(N)nn2)c2ccc(F)c(C)c2)n1` [compound 5], the IC50 was 1 to 50 nM.

As for `Cc1cc(C(F)(F)F)cc(N2C(=O)CC[C@H]2C(=O)N(CC#Cc2cnc(N)cn2)c2ccc(F)c(C)c2)n1` [compound 6], the IC50 fell in the range of 1 to 50 nM.

With `Cc1cc(C(F)(F)F)cc(N2C(=O)CC[C@H]2C(=O)N(CC#Cc2cccc(=O)[nH]2)c2ccc(F)c(C)c2)n1` [compound 7], the IC50 lay in the range of 1 to 50 nM.

Turning to `Cc1cc(C(F)(F)F)cc(N2C(=O)CC[C@H]2C(=O)N(CC#Cc2ccc(F)cn2)c2ccc(F)c(C)c2)n1` [compound 8], the IC50 was 1 to 50 nM.

For `Cc1cc(C(F)(F)F)cc(N2C(=O)CC[C@H]2C(=O)N(CC#Cc2cncn2C)c2ccc(F)c(C)c2)n1` [compound 9], the IC50 was in the range of 1 to 50 nM.

`Cc1cc(C(F)(F)F)cc(N2C(=O)CC[C@H]2C(=O)N(CC#Cc2cnc(N3CCOCC3)cn2)c2ccc(F)c(C)c2)n1` [compound 10]: the IC50 lay in the range of 1 to 50 nM.

`CCN1CCN(c2cnc(C#CCN(C(=O)[C@@H]3CCC(=O)N3c3cc(C(F)(F)F)cc(C)n3)c3ccc(F)c(C)c3)cn2)CC1` [compound 11]: the IC50 is 1 to 50 nM.

Consider `Cc1cc(C(F)(F)F)cc(N2C(=O)CC[C@H]2C(=O)N(CC#Cc2ccc(C(N)=O)nc2)c2ccc(F)c(C)c2)n1` [compound 12], for which the concentration for half-maximal inhibition (IC50) is more than 101 nM.

For `CCN1CCN(CC#CCN(C(=O)[C@@H]2CCC(=O)N2c2cc(C(F)(F)F)cc(C)n2)c2ccc(F)c(C)c2F)CC1` [compound 13], the 50% inhibitory concentration (IC50) fell in the range of 1 to 50 nM.

As to `Cc1cc(C(F)(F)F)cc(N2C(=O)CC[C@H]2C(=O)N(CC#CCN2CCOCC2)c2ccc(F)c(C)c2F)n1` [compound 14], the half-inhibitory concentration (IC50) lay within 1 to 50 nM.

For the molecule `Cc1cc(C(F)(F)F)cc(N2C(=O)CC[C@H]2C(=O)N(CC#CCN2CCN(c3cnccn3)CC2)c2ccc(F)c(C)c2F)n1` [compound 15], the IC50 lay in the range of 1 to 50 nM.

Regarding `Cc1cc(C(F)(F)F)cc(N2C(=O)CC[C@H]2C(=O)N(CC#CCN2CCN(c3ncccn3)CC2)c2ccc(F)c(C)c2F)n1` [compound 16], the IC50 is 1 to 50 nM.

With `Cc1cc(C(F)(F)F)cc(N2[C@H](C(=O)N(CC#Cc3cnc(N)cn3)c3ccc(F)c(C)c3F)CCS2(=O)=O)n1` [compound 17], the IC50 lay within 1 to 50 nM.

Take `Cc1cc(C(F)(F)F)cc(N2[C@H](C(=O)N(CC#Cc3ccc(N)nn3)c3ccc(F)c(C)c3)CCS2(=O)=O)n1` [compound 18]: the IC50 was in the range of 1 to 50 nM.

As to `Cc1cc(C(F)(F)F)cc(N2[C@H](C(=O)N(CC#Cc3ccc(NC(C)C)nn3)c3ccc(F)c(C)c3)CCS2(=O)=O)n1` [compound 20], the IC50 lay in the range of 1 to 50 nM.

`Cc1cc(C(F)(F)F)cc(N2[C@H](C(=O)N(CC#Cc3ccc(NC(C)C)nn3)c3ccc(F)c(C)c3F)CCS2(=O)=O)n1` [compound 21]: the IC50 is 1 to 50 nM.

`CC(=O)Nc1ccc(C#CCN(C(=O)[C@@H]2CCS(=O)(=O)N2c2cc(C(F)(F)F)cc(C)n2)c2ccc(F)c(C)c2)nn1` [compound 22]: the IC50 lay within 1 to 50 nM.

As to `Cc1cc(C(F)(F)F)cc(N2[C@H](C(=O)N(CC#Cc3ccc(N4CCOCC4)nn3)c3ccc(F)c(C)c3)CCS2(=O)=O)n1` [compound 23], the IC50 lay within 1 to 50 nM.

As for `CCN1CCN(c2ccc(C#CCN(C(=O)[C@@H]3CCS(=O)(=O)N3c3cc(C(F)(F)F)cc(C)n3)c3ccc(F)c(C)c3)nn2)CC1` [compound 24], the IC50 is 1 to 50 nM.

`CCN(CC)c1ccc(C#CCN(C(=O)[C@@H]2CCS(=O)(=O)N2c2cc(C(F)(F)F)cc(C)n2)c2ccc(F)c(C)c2)nn1` [compound 25]: the IC50 fell in the range of 1 to 50 nM.

Regarding `Cc1cc(C(F)(F)F)cc(N2[C@H](C(=O)N(CC#Cc3ccc(=O)[nH]n3)c3ccc(F)c(C)c3)CCS2(=O)=O)n1` [compound 26], the IC50 was 1 to 50 nM.

Regarding `COc1ccc(C#CCN(C(=O)[C@@H]2CCS(=O)(=O)N2c2cc(C(F)(F)F)cc(C)n2)c2ccc(F)c(C)c2)nn1` [compound 27], the IC50 fell in the range of 1 to 50 nM.

For the molecule `Cc1cc(C(F)(F)F)cc(N2[C@H](C(=O)N(CC#Cc3ccc(OC(F)F)nn3)c3ccc(F)c(C)c3)CCS2(=O)=O)n1` [compound 28], the IC50 was 1 to 50 nM.

`Cc1cc(C(F)(F)F)cc(N2[C@H](C(=O)N(CC#Cc3ccc(C(N)=O)nn3)c3ccc(F)c(C)c3)CCS2(=O)=O)n1` [compound 29]: the IC50 fell in the range of 1 to 50 nM.

Regarding `Cc1cc(C(F)(F)F)cc(N2[C@H](C(=O)N(CC#Cc3cnc(N)cn3)c3ccc(F)c(C)c3)CCS2(=O)=O)n1` [compound 30], the IC50 lay within 1 to 50 nM.

`Cc1cc(C(F)(F)F)cc(N2[C@@H](C(=O)N(CC#Cc3cnc(N)cn3)c3ccc(F)c(C)c3F)CCS2(=O)=O)n1` [compound 31]: the IC50 was more than 101 nM.

`Cc1ccc(F)c(N(CC#Cc2cnc(N)cn2)C(=O)[C@@H]2CCS(=O)(=O)N2c2cc(C(F)(F)F)cc(C)n2)c1` [compound 33]: the IC50 is 1 to 50 nM.

As to `CC(=O)Nc1cnc(C#CCN(C(=O)[C@@H]2CCS(=O)(=O)N2c2cc(C(F)(F)F)cc(C)n2)c2ccc(F)c(C)c2)cn1` [compound 34], the IC50 was 1 to 50 nM.

`Cc1cc(C(F)(F)F)cc(N2[C@H](C(=O)N(CC#Cc3cnc(NC(N)=O)cn3)c3ccc(F)c(C)c3)CCS2(=O)=O)n1` [compound 35]: the IC50 fell in the range of 1 to 50 nM.

With `Cc1cc(C(F)(F)F)cc(N2[C@H](C(=O)N(CC#Cc3cnc(NC(C)C)cn3)c3ccc(F)c(C)c3)CCS2(=O)=O)n1` [compound 36], the IC50 was 1 to 50 nM.

In the case of `Cc1ccc(F)c(N(CC#Cc2cnc(NC(C)C)cn2)C(=O)[C@@H]2CCS(=O)(=O)N2c2cc(C(F)(F)F)cc(C)n2)c1` [compound 37], the concentration for half-maximal inhibition (IC50) was in the range of 1 to 50 nM.

Consider `Cc1cc(C(F)(F)F)cc(N2[C@H](C(=O)N(CC#Cc3cnc(N4CC5(COC5)C4)cn3)c3ccc(F)c(C)c3)CCS2(=O)=O)n1` [compound 38], for which the IC50 was 1 to 50 nM.

For the origin of these results see patent US20260297083A1, “SUBSTITUTED ACETYLENE COMPOUND DERIVATIVES AND THEIR PHARMACEUTICAL USE” (AVELOS THERAPEUTICS INC., priority 2023, published 2026).
